Patent US20260061056A1, “RINSE SOLUTION FOR A PHOTODYNAMIC DISINFECTION” (MANA HEALTH TECHNOLOGIES GMBH, priority 2022, published 2026)

Experiments:
[1] = absorption spectrum of the photosensitiser (FIG. 1); type: physicochemical; settings: absorption spectrum A of the photosensitiser in rinsing solution
Excerpt: The absorption spectrum A of the photosensitiser used here (dotted line in FIG. 1) has a maximum at a wavelength A of around 445 nm. To activate the photosensitiser, irradiation in the range of this wavelength—or optionally, as in the present example, with a broadband radiation source that also encompasses this range—is therefore effective. […] If more than one photosensitiser is used, this generally results in several absorption maxima to which the radiation source or its radiation spectrum must be adapted.

[2] = system: Streptococcus mutans; experiment: photodynamic effect of rinsing solution against S. mutans bacterial suspension, photosensitiser concentration series (FIG. 2); type: cell-based; settings: irradiation 300 s; for microorganism content after irradiation: 17-21 J/cm^2
Excerpt: The corresponding comparative value was approx. 3.2·10^7 CFU/ml. The other bars of the graph each show the reduction in the microorganism content when using the (here: single) photosensitiser at different concentrations, including such concentrations that differ from the disclosed subject matter, in the rinsing solution after effective irradiation for 300 s with between 10 and 45 J/cm^2, in the present case between 17 and 21 J/cm^2.
As the other bars R50, R125 and R250 show, the microorganism content increases again with increasing photosensitiser concentration of 0.5 wt. % (R50), 1.25 wt. % (R125) and 2.5 wt. % (R250), i.e. to approx. 1.6·10^5 CFU/ml, approx. 1.1·10^6 CFU/ml and approx. 2.9·10^6 CFU/ml, respectively. This means that despite the higher concentration of the photosensitiser and the higher number of free radicals to be expected as a result, the efficacy of the disinfection is reduced.

SMILES: Cc1cc2nc3c(=O)[nH]c(=O)nc-3n(C[C@H](O)[C@H](O)[C@H](O)COP(=O)([O-])O)c2cc1C.[Na+] [riboflavin 5′-phosphate sodium, Riboflavin 5′-phosphate sodium]
- absorption maximum wavelength [1]: around 445 nm
- microorganism content after irradiation ([2]; 0.01 wt. % photosensitiser in rinsing solution (bar R01), growth control approx. 3.2·10^7 CFU/ml): approx. 2.1·10^6 CFU/ml
- reduction of microorganism content versus growth control ([2]; 0.01 wt. % photosensitiser): more than an order of magnitude
- microorganism content after irradiation ([2]; 0.25 wt. % photosensitiser in rinsing solution (bar R25)): approx. 2.0·10^4 CFU/ml
- microorganism content as fraction of the comparative value ([2]; 0.25 wt. % photosensitiser): less than 1/1000
- reduction of microorganism content versus growth control ([2]; 0.25 wt. % photosensitiser): more than 3 orders of magnitude
- microorganism content after irradiation ([2]; 0.5 wt. % photosensitiser (bar R50)): approx. 1.6·10^5 CFU/ml
- microorganism content after irradiation ([2]; 1.25 wt. % photosensitiser (bar R125)): approx. 1.1·10^6 CFU/ml
- microorganism content after irradiation ([2]; 2.5 wt. % photosensitiser (bar R250)): approx. 2.9·10^6 CFU/ml
